Columns and labels:
rice (Wells variety) = experiment: Pre-emergent weed control in direct-seeded flooded rice (Example 2), rice injury; format: in vivo; details: for % Rice Injury Rice Wells: pre-emergent, flooded, 28 Days After Treatment
Description: (§1) Seeds of crops, rice (Taggart and Wells varieties) and weeds, yellow nutsedge (Cyperus esculentus), barnyardgrass (Echinochloa crus-galli), large crabgrass (Digitaria sanguinalis), hemp sesbania (Sesbania herbacea), Benghal dayflower (Commelina benghalensis), red rice (Oryza sativa) and broadleaf signalgrass (Urochloa platyphylla) were planted in two gallon pots containing top soil. Each pot was watered well before the application of mesotrione (Callisto® Herbicide from Syngenta Crop Protection).

rice (Taggart variety) = experiment: as above; format: in vivo; details: for % Rice Injury Rice Taggert: pre-emergent, flooded, 28 Days After Treatment
Description: as §1

CS(=O)(=O)c1ccc(C(=O)C2C(=O)CCCC2=O)c([N+](=O)[O-])c1 [Mesotrione, mesotrione]
% Rice Injury Rice Wells (rice (Wells variety); 6 g ai/ha): 0% | % Rice Injury Rice Wells (rice (Wells variety); 12 g ai/ha): 2% | % Rice Injury Rice Wells (rice (Wells variety); 25 g ai/ha): 4% | % Rice Injury Rice Wells (rice (Wells variety); 50 g ai/ha): 5% | % Rice Injury Rice Wells (rice (Wells variety); 100 g ai/ha): 12% | % Rice Injury Rice Wells (rice (Wells variety); 200 g ai/ha): 47% | safety on white rice, Wells (rice (Wells variety); summary of Table 7 data): safe | % Rice Injury Rice Taggert (rice (Taggart variety); 6 g ai/ha): 0% | % Rice Injury Rice Taggert (rice (Taggart variety); 12 g ai/ha): 2% | % Rice Injury Rice Taggert (rice (Taggart variety); 25 g ai/ha): 4% | % Rice Injury Rice Taggert (rice (Taggart variety); 50 g ai/ha): 8% | % Rice Injury Rice Taggert (rice (Taggart variety); 100 g ai/ha): 10% | % Rice Injury Rice Taggert (rice (Taggart variety); 200 g ai/ha): 53% | safety on white rice, Taggart (rice (Taggart variety); summary of Table 7 data): safe
